The values below are quoted from earlier work in article PMC6572427, “Peptosome Coadministration Improves Nanoparticle Delivery to Tumors through NRP1-Mediated Co-Endocytosis” (Biomolecules, 2019).

For this data set the following is noted: in vivo.

Excerpt: Therefore, its fluorescence signal can be used to reflect the integrity of peptosomes and estimate the in vivo plasma stability. […] Blood was then collected at different time points after the injection as described in the methods, and the fluorescence signals were detected using an IVIS Spectrum in vivo ...

With CRGDKGPDC [iRGD], the plasma half-life entry is “eight”.
